Results from patent US4178371A, “Tetrapeptide derivatives” (Reckitt & Colman Products Limited, priority 1977, dated 1979).

Columns and labels:
opiate receptor sites = details: isolated guinea pig ileum twitch response, dose response curve compared with Met enkephalin
Description: The test used for the detection of their agonist activity at opiate receptor sites is that employing the transmurally stimulates guinea pig ileum preparation described in Kosterlitz et al., Brit. J. Pharmacol, and Chemotherapy 33. 266-276 (1968). […] Exp. Ther. 125, 237 (1959) and by the rat tail flick test (intravenous administration) according to Jansen et al., Arzneim Forsch. 13, 266 (1963).
In the above mentioned test method of Kosterlitz et al male or female guinea pigs (Duncan Hartley strain) are killed by a blow on the head and a portion of the ileum removed and set up in an isolated organ bath of 50 ml volume. A `twitch` response is produced by low frequency (0.1 Hz) stimulation with 0.5 msec rectilinear pulses. A test compound is dissolved in distilled water to produce a stock solution of concentration 1 mg/ml. Serial dilutions are carried out using Krebs solution to produce concentrations of 10 μg, 1 μg and 0.1 μg/ml. The compound is tested by adding between 0.1-0.3 ml of the solutions to the organ bath. A dose response curve is then drawn and compared with that for Met enkephalin.

mouse = mouse phenyl-quinone anti writhing test of Hendershot et al (H & F); assay type: in vivo; details: i.v.
Description: (§1) J. Pharmacol, and Chemotherapy 33. 266-276 (1968). […] 13, 266 (1963).

rat = rat tail flick test (R.T.F.), intravenous administration; assay type: in vivo; details: hot water 55° as nociceptive stimulus, i.v.
Method: as §1
In the rat tail flick test hot water (maintained at 55°±1°C.) is used as the nociceptive stimulus.

| Structure (SMILES) | G.P.I. Potency (X Met enkephalin) (opiate receptor sites) | H & F ED50 (mouse) | R.T.F. ED50 (rat) |
| --- | --- | --- | --- |
| C[C@@H](NC(=O)[C@@H](N)Cc1ccc(O)cc1)C(=O)NCC(=O)N(C)[C@@H](Cc1ccccc1)C(=O)NCCCN(C)C [Example 2, L-Tyrosyl-D-alanylglycyl-N-methyl-L-phenylalanine-3-dimethylaminopropylamide] | 7.2 X Met enkephalin | 0.28 mg/kg | 2.0 mg/kg |
| CC(=O)NCCNC(=O)[C@H](Cc1ccccc1)NC(=O)CNC(=O)[C@@H](C)NC(=O)[C@@H](N)Cc1ccc(O)cc1 [Example 1, L-Tyrosyl-D-alanylglycyl-L-phenylalanin-2-acetamidoethylamide] | 2.6 X Met enkephalin | 0.01 mg/kg | – |
| C[C@@H](NC(=O)[C@@H](N)Cc1ccc(O)cc1)C(=O)NCC(=O)N(C)[C@@H](Cc1ccccc1)C(=O)NCCCC(=O)N(C)c1ccccc1 [Example 19, HTyrDAlaGlyMePheNH(CH2)3 CONMePh] | 23.2 X Met enkephalin | – | – |
| C[C@@H](NC(=O)[C@@H](N)Cc1ccc(O)cc1)C(=O)NCC(=O)N(C)[C@@H](Cc1ccccc1)C(=O)NCCN(C)C [Example 4, L-Tyrosyl-D-alanylglycyl-N-methyl-L-phenylalanine-2-dimethylaminoethylamide] | 8.5 X Met enkephalin | 0.003 mg/kg | 1.4 mg/kg |
| C[C@@H](NC(=O)[C@@H](N)Cc1ccc(O)cc1)C(=O)NCC(=O)N(C)[C@@H](Cc1ccccc1)C(=O)NCCN [Example 6, L-Tyrosyl-D-alanylglycyl-N-methyl-L-phenylalanine-2-aminoethylamide] | 13.0 X Met enkephalin | 0.028 mg/kg | 0.37 mg/kg |
| C[C@@H](NC(=O)[C@@H](N)Cc1ccc(O)cc1)C(=O)NCC(=O)N(C)[C@@H](Cc1ccccc1)C(=O)NCC[N+](C)(C)[O-] [Example 22, HTyrDAlaGlyMePheNH(CH 2)2 N(O)Me2] | 6.5 X Met enkephalin | – | – |
